{
  "source": "ChEMBL document CHEMBL3991601",
  "about": "“The target landscape of clinical kinase drugs” (Science, 2017)",
  "note": "Active and inactive are the calls of the source. Also: in the data inactive means no Kd found up to 30 µM.",
  "data": [
    {"target": "Serine/threonine-protein kinase 26 (Homo sapiens, UniProt Q9P289)", "sequence (Q9P289 whole entry)": "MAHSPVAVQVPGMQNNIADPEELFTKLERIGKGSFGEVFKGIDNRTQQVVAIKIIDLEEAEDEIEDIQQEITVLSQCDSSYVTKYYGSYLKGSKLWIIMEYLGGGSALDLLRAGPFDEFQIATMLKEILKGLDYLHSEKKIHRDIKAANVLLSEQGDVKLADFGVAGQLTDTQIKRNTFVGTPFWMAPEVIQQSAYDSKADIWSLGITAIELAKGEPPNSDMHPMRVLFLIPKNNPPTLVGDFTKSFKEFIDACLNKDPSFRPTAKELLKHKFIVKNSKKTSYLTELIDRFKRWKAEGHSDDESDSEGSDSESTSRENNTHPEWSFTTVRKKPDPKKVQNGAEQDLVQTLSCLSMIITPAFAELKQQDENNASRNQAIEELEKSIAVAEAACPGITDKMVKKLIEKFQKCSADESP", "values": [
      {"compound": "C[C@@H](Nc1cc(F)cc(F)c1)c1cc(C(=O)N(C)C)cc2c(=O)cc(N3CCOCC3)oc12", "note": "[AZD-8186]", "Kd": "> 30 µM (inactive)"},
      {"compound": "Cc1ccc(NC(=O)c2ccc(CN3CC[C@H](N(C)C)C3)c(C(F)(F)F)c2)cc1Nc1nccc(-c2cncnc2)n1", "note": "[BAFETINIB]", "Kd": "> 30 µM (inactive)"},
      {"compound": "CCS(=O)(=O)N1CC(CC#N)(n2cc(-c3ncnc4[nH]ccc34)cn2)C1", "note": "[BARICITINIB]", "Kd": "> 30 µM (inactive)"},
      {"compound": "CNC(=O)c1ccc(-c2cnc3ncc(Cc4ccc5ncccc5c4)n3n2)cc1F", "note": "[CAPMATINIB]", "Kd": "> 30 µM (inactive)"}
    ]},
    {"target": "cAMP-dependent protein kinase catalytic subunit gamma (Homo sapiens, UniProt P22612)", "sequence (P22612 whole entry)": "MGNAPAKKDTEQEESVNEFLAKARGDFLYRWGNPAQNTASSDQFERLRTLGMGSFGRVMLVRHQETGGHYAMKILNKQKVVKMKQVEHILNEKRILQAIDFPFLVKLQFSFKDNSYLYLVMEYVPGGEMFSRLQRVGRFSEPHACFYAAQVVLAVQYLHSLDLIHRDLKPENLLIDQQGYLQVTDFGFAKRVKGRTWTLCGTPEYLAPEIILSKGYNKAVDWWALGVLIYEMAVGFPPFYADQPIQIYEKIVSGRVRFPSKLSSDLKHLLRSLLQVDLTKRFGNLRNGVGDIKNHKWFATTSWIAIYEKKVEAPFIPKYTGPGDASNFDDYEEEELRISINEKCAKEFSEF", "values": [
      {"compound": "C[C@@H](Nc1cc(F)cc(F)c1)c1cc(C(=O)N(C)C)cc2c(=O)cc(N3CCOCC3)oc12", "note": "[AZD-8186]", "Kd": "> 30 µM (inactive)"},
      {"compound": "Cc1ccc(NC(=O)c2ccc(CN3CC[C@H](N(C)C)C3)c(C(F)(F)F)c2)cc1Nc1nccc(-c2cncnc2)n1", "note": "[BAFETINIB]", "Kd": "> 30 µM (inactive)"},
      {"compound": "CCS(=O)(=O)N1CC(CC#N)(n2cc(-c3ncnc4[nH]ccc34)cn2)C1", "note": "[BARICITINIB]", "Kd": "> 30 µM (inactive)"},
      {"compound": "CNC(=O)c1ccc(-c2cnc3ncc(Cc4ccc5ncccc5c4)n3n2)cc1F", "note": "[CAPMATINIB]", "Kd": "> 30 µM (inactive)"}
    ]},
    {"target": "T1, Ribosyldihydronicotinamide dehydrogenase [quinone] (Homo sapiens, UniProt P16083)", "T1 sequence (P16083 whole entry)": "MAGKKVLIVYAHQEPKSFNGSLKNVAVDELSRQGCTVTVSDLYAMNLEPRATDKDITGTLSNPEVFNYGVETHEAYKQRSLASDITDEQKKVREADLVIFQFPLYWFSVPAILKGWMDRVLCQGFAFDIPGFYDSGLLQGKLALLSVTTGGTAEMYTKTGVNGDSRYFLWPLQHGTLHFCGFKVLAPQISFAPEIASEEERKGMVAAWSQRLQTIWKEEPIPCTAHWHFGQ", "values": [
      {"compound": "C[C@@H](Nc1cc(F)cc(F)c1)c1cc(C(=O)N(C)C)cc2c(=O)cc(N3CCOCC3)oc12", "note": "[AZD-8186]", "Kd": "> 30 µM (inactive)"},
      {"compound": "Cc1ccc(NC(=O)c2ccc(CN3CC[C@H](N(C)C)C3)c(C(F)(F)F)c2)cc1Nc1nccc(-c2cncnc2)n1", "note": "[BAFETINIB]", "Kd": "6.87 µM"},
      {"compound": "CCS(=O)(=O)N1CC(CC#N)(n2cc(-c3ncnc4[nH]ccc34)cn2)C1", "note": "[BARICITINIB]", "Kd": "> 30 µM (inactive)"},
      {"compound": "CNC(=O)c1ccc(-c2cnc3ncc(Cc4ccc5ncccc5c4)n3n2)cc1F", "note": "[CAPMATINIB]", "Kd": "> 30 µM (inactive)"}
    ]},
    {"target": "Bone morphogenetic protein receptor type-1A (Homo sapiens, UniProt P36894)", "sequence (P36894 whole entry)": "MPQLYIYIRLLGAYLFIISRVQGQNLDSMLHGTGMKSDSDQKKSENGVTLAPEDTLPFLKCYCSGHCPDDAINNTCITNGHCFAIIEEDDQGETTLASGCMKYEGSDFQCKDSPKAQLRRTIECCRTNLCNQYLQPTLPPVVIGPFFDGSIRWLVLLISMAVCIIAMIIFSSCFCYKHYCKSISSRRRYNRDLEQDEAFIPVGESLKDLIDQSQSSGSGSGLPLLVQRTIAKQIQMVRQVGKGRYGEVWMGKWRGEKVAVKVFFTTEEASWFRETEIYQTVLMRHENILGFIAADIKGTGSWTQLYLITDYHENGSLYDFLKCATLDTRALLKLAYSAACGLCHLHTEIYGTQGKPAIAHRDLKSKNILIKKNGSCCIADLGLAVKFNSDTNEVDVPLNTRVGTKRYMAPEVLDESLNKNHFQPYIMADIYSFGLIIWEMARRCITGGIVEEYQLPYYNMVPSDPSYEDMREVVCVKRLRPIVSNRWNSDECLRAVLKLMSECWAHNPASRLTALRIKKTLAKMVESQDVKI", "values": [
      {"compound": "C[C@@H](Nc1cc(F)cc(F)c1)c1cc(C(=O)N(C)C)cc2c(=O)cc(N3CCOCC3)oc12", "note": "[AZD-8186]", "Kd": "> 30 µM (inactive)"},
      {"compound": "Cc1ccc(NC(=O)c2ccc(CN3CC[C@H](N(C)C)C3)c(C(F)(F)F)c2)cc1Nc1nccc(-c2cncnc2)n1", "note": "[BAFETINIB]", "Kd": "> 30 µM (inactive)"},
      {"compound": "CCS(=O)(=O)N1CC(CC#N)(n2cc(-c3ncnc4[nH]ccc34)cn2)C1", "note": "[BARICITINIB]", "Kd": "> 30 µM (inactive)"},
      {"compound": "CNC(=O)c1ccc(-c2cnc3ncc(Cc4ccc5ncccc5c4)n3n2)cc1F", "note": "[CAPMATINIB]", "Kd": "> 30 µM (inactive)"}
    ]},
    {"target": "T2, ADP/ATP translocase 2 (Homo sapiens, UniProt P05141)", "T2 sequence (P05141 whole entry)": "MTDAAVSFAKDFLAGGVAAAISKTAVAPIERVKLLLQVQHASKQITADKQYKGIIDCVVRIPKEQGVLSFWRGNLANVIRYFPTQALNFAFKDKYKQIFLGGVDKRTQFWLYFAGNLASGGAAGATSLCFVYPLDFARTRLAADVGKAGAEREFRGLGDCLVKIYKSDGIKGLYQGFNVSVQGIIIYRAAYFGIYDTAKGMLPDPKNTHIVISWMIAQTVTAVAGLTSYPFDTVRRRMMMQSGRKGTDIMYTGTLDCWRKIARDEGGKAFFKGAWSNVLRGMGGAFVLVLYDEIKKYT", "values": [
      {"compound": "C[C@@H](Nc1cc(F)cc(F)c1)c1cc(C(=O)N(C)C)cc2c(=O)cc(N3CCOCC3)oc12", "note": "[AZD-8186]", "Kd": "> 30 µM (inactive)"},
      {"compound": "Cc1ccc(NC(=O)c2ccc(CN3CC[C@H](N(C)C)C3)c(C(F)(F)F)c2)cc1Nc1nccc(-c2cncnc2)n1", "note": "[BAFETINIB]", "Kd": "> 30 µM (inactive)"},
      {"compound": "CCS(=O)(=O)N1CC(CC#N)(n2cc(-c3ncnc4[nH]ccc34)cn2)C1", "note": "[BARICITINIB]", "Kd": "> 30 µM (inactive)"},
      {"compound": "CNC(=O)c1ccc(-c2cnc3ncc(Cc4ccc5ncccc5c4)n3n2)cc1F", "note": "[CAPMATINIB]", "Kd": "> 30 µM (inactive)"}
    ]},
    {"target": "Actin-related protein 2 (Homo sapiens, UniProt P61160)", "values": [
      {"compound": "C[C@@H](Nc1cc(F)cc(F)c1)c1cc(C(=O)N(C)C)cc2c(=O)cc(N3CCOCC3)oc12", "note": "[AZD-8186]", "Kd": "> 30 µM (inactive)"},
      {"compound": "Cc1ccc(NC(=O)c2ccc(CN3CC[C@H](N(C)C)C3)c(C(F)(F)F)c2)cc1Nc1nccc(-c2cncnc2)n1", "note": "[BAFETINIB]", "Kd": "> 30 µM (inactive)"},
      {"compound": "CCS(=O)(=O)N1CC(CC#N)(n2cc(-c3ncnc4[nH]ccc34)cn2)C1", "note": "[BARICITINIB]", "Kd": "> 30 µM (inactive)"}
    ]},
    {"target": "T3, Structural maintenance of chromosomes protein 1A (Homo sapiens, UniProt Q14683)", "T3 sequence (Q14683 whole entry)": "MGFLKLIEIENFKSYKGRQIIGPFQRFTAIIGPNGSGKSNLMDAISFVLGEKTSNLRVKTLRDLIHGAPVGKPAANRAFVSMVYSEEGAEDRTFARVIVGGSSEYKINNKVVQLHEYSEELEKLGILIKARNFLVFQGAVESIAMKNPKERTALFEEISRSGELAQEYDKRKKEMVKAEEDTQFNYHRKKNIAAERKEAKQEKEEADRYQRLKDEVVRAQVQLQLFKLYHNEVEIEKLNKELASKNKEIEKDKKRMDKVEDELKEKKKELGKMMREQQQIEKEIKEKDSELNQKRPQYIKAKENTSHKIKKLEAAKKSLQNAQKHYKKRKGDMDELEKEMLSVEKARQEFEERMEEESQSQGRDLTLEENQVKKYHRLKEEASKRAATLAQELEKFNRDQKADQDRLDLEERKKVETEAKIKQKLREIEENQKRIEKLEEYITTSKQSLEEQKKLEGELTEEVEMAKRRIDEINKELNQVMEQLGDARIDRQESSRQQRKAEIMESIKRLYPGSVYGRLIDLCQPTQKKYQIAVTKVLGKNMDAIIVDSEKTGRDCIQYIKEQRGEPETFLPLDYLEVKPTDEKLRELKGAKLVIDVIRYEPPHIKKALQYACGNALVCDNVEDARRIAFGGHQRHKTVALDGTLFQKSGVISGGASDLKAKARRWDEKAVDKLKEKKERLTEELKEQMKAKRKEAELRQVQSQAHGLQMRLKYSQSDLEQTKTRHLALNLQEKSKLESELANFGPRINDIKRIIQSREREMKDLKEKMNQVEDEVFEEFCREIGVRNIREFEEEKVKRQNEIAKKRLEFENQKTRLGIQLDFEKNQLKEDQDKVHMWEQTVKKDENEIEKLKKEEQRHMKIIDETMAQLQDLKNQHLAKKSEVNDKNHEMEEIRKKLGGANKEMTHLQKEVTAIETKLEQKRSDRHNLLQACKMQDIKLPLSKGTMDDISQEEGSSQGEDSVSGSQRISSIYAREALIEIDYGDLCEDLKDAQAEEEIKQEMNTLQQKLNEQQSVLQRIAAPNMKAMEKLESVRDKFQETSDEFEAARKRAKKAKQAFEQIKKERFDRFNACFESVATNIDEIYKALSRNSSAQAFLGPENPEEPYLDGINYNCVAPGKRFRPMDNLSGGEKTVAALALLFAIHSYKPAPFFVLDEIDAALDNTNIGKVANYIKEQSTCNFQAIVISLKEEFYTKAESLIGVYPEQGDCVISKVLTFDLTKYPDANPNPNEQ", "values": [
      {"compound": "C[C@@H](Nc1cc(F)cc(F)c1)c1cc(C(=O)N(C)C)cc2c(=O)cc(N3CCOCC3)oc12", "note": "[AZD-8186]", "Kd": "> 30 µM (inactive)"},
      {"compound": "Cc1ccc(NC(=O)c2ccc(CN3CC[C@H](N(C)C)C3)c(C(F)(F)F)c2)cc1Nc1nccc(-c2cncnc2)n1", "note": "[BAFETINIB]", "Kd": "> 30 µM (inactive)"},
      {"compound": "CCS(=O)(=O)N1CC(CC#N)(n2cc(-c3ncnc4[nH]ccc34)cn2)C1", "note": "[BARICITINIB]", "Kd": "> 30 µM (inactive)"},
      {"compound": "CNC(=O)c1ccc(-c2cnc3ncc(Cc4ccc5ncccc5c4)n3n2)cc1F", "note": "[CAPMATINIB]", "Kd": "> 30 µM (inactive)"}
    ]},
    {"target": "Serine/threonine-protein kinase/endoribonuclease IRE1 (Homo sapiens, UniProt O75460)", "sequence (O75460 whole entry)": "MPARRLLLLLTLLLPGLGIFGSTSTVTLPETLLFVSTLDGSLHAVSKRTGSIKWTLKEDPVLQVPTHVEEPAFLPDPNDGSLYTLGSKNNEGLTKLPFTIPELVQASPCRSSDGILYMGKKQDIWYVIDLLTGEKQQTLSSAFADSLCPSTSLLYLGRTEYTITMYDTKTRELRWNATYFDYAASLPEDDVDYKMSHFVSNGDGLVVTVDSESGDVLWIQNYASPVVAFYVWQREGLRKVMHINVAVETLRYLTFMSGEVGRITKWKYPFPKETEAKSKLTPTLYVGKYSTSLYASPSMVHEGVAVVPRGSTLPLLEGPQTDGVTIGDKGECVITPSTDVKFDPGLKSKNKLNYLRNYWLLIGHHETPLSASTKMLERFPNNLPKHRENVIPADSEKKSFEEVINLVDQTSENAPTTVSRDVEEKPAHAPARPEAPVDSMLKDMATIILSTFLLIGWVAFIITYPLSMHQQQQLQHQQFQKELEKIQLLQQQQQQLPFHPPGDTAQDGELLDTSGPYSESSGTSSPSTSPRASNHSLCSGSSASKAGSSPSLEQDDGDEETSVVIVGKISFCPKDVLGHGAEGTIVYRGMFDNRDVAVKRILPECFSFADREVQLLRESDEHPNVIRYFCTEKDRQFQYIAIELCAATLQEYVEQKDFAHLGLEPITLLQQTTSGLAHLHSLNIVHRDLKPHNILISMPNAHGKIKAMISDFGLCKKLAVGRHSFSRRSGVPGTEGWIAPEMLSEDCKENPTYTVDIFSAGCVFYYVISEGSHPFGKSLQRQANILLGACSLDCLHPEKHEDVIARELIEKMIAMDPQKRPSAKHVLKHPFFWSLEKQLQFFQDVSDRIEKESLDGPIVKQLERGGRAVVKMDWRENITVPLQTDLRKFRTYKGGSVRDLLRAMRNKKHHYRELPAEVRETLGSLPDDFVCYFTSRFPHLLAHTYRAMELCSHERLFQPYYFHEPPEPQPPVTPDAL", "values": [
      {"compound": "C[C@@H](Nc1cc(F)cc(F)c1)c1cc(C(=O)N(C)C)cc2c(=O)cc(N3CCOCC3)oc12", "note": "[AZD-8186]", "Kd": "> 30 µM (inactive)"},
      {"compound": "Cc1ccc(NC(=O)c2ccc(CN3CC[C@H](N(C)C)C3)c(C(F)(F)F)c2)cc1Nc1nccc(-c2cncnc2)n1", "note": "[BAFETINIB]", "Kd": "> 30 µM (inactive)"},
      {"compound": "CCS(=O)(=O)N1CC(CC#N)(n2cc(-c3ncnc4[nH]ccc34)cn2)C1", "note": "[BARICITINIB]", "Kd": "> 30 µM (inactive)"},
      {"compound": "CNC(=O)c1ccc(-c2cnc3ncc(Cc4ccc5ncccc5c4)n3n2)cc1F", "note": "[CAPMATINIB]", "Kd": "> 30 µM (inactive)"}
    ]},
    {"target": "Casein kinase II subunit alpha' (Homo sapiens, UniProt P19784)", "sequence (P19784 whole entry)": "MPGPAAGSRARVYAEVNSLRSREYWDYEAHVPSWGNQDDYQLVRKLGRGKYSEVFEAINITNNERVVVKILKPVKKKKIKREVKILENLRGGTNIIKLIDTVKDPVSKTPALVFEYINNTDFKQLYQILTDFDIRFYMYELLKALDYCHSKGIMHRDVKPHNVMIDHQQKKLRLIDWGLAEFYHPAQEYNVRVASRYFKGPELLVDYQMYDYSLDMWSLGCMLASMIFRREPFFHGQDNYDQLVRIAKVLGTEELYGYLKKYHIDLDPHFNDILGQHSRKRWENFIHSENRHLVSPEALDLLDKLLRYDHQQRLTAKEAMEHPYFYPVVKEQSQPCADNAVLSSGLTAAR", "values": [
      {"compound": "C[C@@H](Nc1cc(F)cc(F)c1)c1cc(C(=O)N(C)C)cc2c(=O)cc(N3CCOCC3)oc12", "note": "[AZD-8186]", "Kd": "> 30 µM (inactive)"},
      {"compound": "Cc1ccc(NC(=O)c2ccc(CN3CC[C@H](N(C)C)C3)c(C(F)(F)F)c2)cc1Nc1nccc(-c2cncnc2)n1", "note": "[BAFETINIB]", "Kd": "> 30 µM (inactive)"},
      {"compound": "CCS(=O)(=O)N1CC(CC#N)(n2cc(-c3ncnc4[nH]ccc34)cn2)C1", "note": "[BARICITINIB]", "Kd": "> 30 µM (inactive)"},
      {"compound": "CNC(=O)c1ccc(-c2cnc3ncc(Cc4ccc5ncccc5c4)n3n2)cc1F", "note": "[CAPMATINIB]", "Kd": "> 30 µM (inactive)"}
    ]},
    {"target": "T4, Probable ATP-dependent RNA helicase DDX6 (Homo sapiens, UniProt P26196)", "T4 sequence (P26196 whole entry)": "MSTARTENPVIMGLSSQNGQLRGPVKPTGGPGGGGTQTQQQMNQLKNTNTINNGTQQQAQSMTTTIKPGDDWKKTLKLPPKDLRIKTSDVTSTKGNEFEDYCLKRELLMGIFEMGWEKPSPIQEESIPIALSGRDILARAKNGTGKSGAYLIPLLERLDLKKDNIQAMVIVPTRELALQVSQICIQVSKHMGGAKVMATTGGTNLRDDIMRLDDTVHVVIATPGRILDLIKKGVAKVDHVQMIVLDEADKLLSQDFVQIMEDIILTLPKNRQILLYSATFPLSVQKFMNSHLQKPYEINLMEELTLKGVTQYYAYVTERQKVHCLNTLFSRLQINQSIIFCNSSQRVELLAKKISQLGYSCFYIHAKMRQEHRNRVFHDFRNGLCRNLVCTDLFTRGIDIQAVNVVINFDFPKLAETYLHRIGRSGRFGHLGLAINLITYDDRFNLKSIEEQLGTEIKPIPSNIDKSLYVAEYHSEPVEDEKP", "values": [
      {"compound": "Cc1ccc(NC(=O)c2ccc(CN3CC[C@H](N(C)C)C3)c(C(F)(F)F)c2)cc1Nc1nccc(-c2cncnc2)n1", "note": "[BAFETINIB]", "Kd": "> 30 µM (inactive)"},
      {"compound": "CCS(=O)(=O)N1CC(CC#N)(n2cc(-c3ncnc4[nH]ccc34)cn2)C1", "note": "[BARICITINIB]", "Kd": "> 30 µM (inactive)"},
      {"compound": "CNC(=O)c1ccc(-c2cnc3ncc(Cc4ccc5ncccc5c4)n3n2)cc1F", "note": "[CAPMATINIB]", "Kd": "> 30 µM (inactive)"}
    ]}
  ]
}
